Test results reported in PubChem BioAssay (NCI).
Several values for one entry are separate records, joined by “and”; a condition that tells them apart may be missing. Equal values may be shown once.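 1) Cells in 96-well plates. 2) Compound, 48 h, 5 concentrations. 3) Linear interpolation between surrounding doses. 4) Unreached endpoint = highest concentration. GI50 is the concentration that inhibits growth by half. Definition used: TGI = concentration required for complete inhibition of growth.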

Tests used:
Assay in all cases: NCI tumour cell line growth inhibition, 48 h
[1] = test system: A498 renal
[2] = test system: DU-145 prostate
[3] = test system: HCT-15 colon
[4] = test system: HOP-62 NSCLC
[5] = test system: LOX IMVI melanoma
[6] = test system: OVCAR-4 ovarian
[7] = test system: SK-MEL-2 melanoma
[8] = test system: SK-OV-3 ovarian
[9] = test system: T-47D breast
[10] = test system: UACC-257 melanoma

| SMILES | GI50 [1] | TGI [1] | GI50 [2] | TGI [2] | GI50 [3] | TGI [3] | GI50 [4] | TGI [4] | GI50 [5] | TGI [5] | GI50 [6] | TGI [6] | GI50 [7] | TGI [7] | GI50 [8] | TGI [8] | GI50 [9] | TGI [9] | GI50 [10] | TGI [10] |
| --- | --- | --- | --- | --- | --- | --- | --- | --- | --- | --- | --- | --- | --- | --- | --- | --- | --- | --- | --- | --- |
| CCNC(=O)Oc1ccc(/C(=C(\C)c2ccc(Cl)cc2)c2ccc(OCCN3CCCCC3)cc2)cc1 | 13.7 µM | 27 µM | 10.9 µM | 23.7 µM | 2.49 µM | 7.72 µM | 4.12 µM | 15.4 µM | 1.93 µM | 3.94 µM | 2.99 µM | 12.9 µM | 5.49 µM | 19.2 µM | 8.52 µM | 21.3 µM | 1.34 µM | 10.2 µM | 2.38 µM | 5.12 µM |
| CN1CCN(C(=S)SCN2C(=O)c3ccccc3S2(=O)=O)CC1 | 93 µM | > 100 µM | 26.4 µM | > 100 µM | 21.3 µM | 99.1 µM | > 100 µM | > 100 µM | 11.6 µM | 36.9 µM | 23.2 µM | 72.3 µM | > 100 µM | > 100 µM | > 100 µM | > 100 µM | 11 µM | > 100 µM | 63.9 µM | > 100 µM |
| O=[N+]([O-])c1cccc(-c2ncc(-c3ccc(Cl)cc3Cl)[nH]2)c1 | 6.12 µM | 22.6 µM | 4.46 µM | 10.5 µM | 2.39 µM | 6.82 µM | 9.53 µM | 26.8 µM | 3.35 µM | 8.55 µM | 3.18 µM | 12.1 µM | 16.2 µM | 41.3 µM | 22.7 µM | > 70 µM | 6.88 µM | 28.5 µM | 9.7 µM | 29 µM |
| CC1SC2(CCCCC2)N(NC(=O)c2[nH]c3ccc(F)cc3c2-c2ccccc2)C1=O (stereo not drawn) | > 100 µM | > 100 µM | > 100 µM | > 100 µM | > 100 µM | > 100 µM | 19.7 µM | 60.9 µM | > 100 µM | > 100 µM | 41.6 µM | > 100 µM | 76.2 µM | > 100 µM | > 100 µM | > 100 µM | > 100 µM | > 100 µM | 90.9 µM | > 100 µM |
| CN1CC(C(=O)NC2(C)OC3(O)C4CCCN4C(=O)C(Cc4ccccc4)N3C2=O)C=C2c3cccc4[nH]cc(c34)CC21 (stereo not drawn) | – | 30.9 µM | – | 67.8 µM | – | 45.9 µM | – | 63.2 µM | – | 35.9 µM | – | > 100 µM | – | 35.1 µM | – | > 100 µM | – | > 100 µM | – | 29.8 µM |
| C#Cc1cccc(Nc2ncnc3ccc(-c4cncc(NS(C)(=O)=O)c4)cc23)c1 | 0.372 µM | 2.04 µM | 2.07 µM | 12.8 µM | 3.47 µM | 16.7 µM | 1.84 µM | 14.1 µM | 1.26 µM | 2.86 µM | 3.59 µM | 75.9 µM | 0.845 µM | 2.2 µM | 1.89 µM | 5.71 µM | 0.209 µM | 2.77 µM | 3.7 µM | 16.2 µM |
| COc1cc(C2c3cc4c(cc3[C@@H](Nc3cccc(O)c3)C3COC(=O)[C@H]23)OCO4)cc(OC)c1O (stereo partly drawn) | 0.86 µM | 5.9 µM | – | 1.75 µM | – | 46.4 µM | 0.459 µM | 4.24 µM | 0.535 µM | 7.3 µM | – | 37.6 µM | – | 15 µM | – | 18 µM | – | 53.2 µM | 0.925 µM | 16.9 µM |
| CCc1nc(N)nc(N)c1-c1ccc([N+](=O)[O-])c(Cl)c1 | – | > 100 µM | – | > 100 µM | – | > 100 µM | – | > 100 µM | – | > 100 µM | – | > 100 µM | – | > 100 µM | – | > 100 µM | – | > 100 µM | – | > 100 µM |
| Cc1cc2c(cc1Cl)SC1=NN(C)C(c3ccccc3O)N1S2(=O)=O (stereo not drawn) | > 100 µM | > 100 µM | 65.7 µM | > 100 µM | 54 µM | > 100 µM | 88.5 µM | > 100 µM | 40.5 µM | > 100 µM | 51.5 µM | > 100 µM | > 100 µM | > 100 µM | > 100 µM | > 100 µM | > 100 µM | > 100 µM | > 100 µM | > 100 µM |
| CN1C(=O)C23CC4=CC=CC(O)C4N2C(=O)C1(CO)SS3 (stereo not drawn) | – | 0.402 µM | – | 0.318 µM | – | 0.419 µM | – | 0.322 µM | – | 0.492 µM | – | 0.524 µM | – | 0.617 µM | – | 2.75 µM | – | 0.339 µM | – | 0.936 µM |
| CC[C@@]1(OC(=O)CN(C)C)C(=O)OCc2c1cc1n(c2=O)Cc2cc3ccccc3nc2-1 | 0.0851 µM | 0.984 µM and 0.317 µM | 0.0207 µM | 0.246 µM and 0.484 µM | 0.257 µM | 5.03 µM and 3.09 µM | – | 1.36 µM | < 0.0161 µM | 0.285 µM and 0.218 µM | 0.205 µM | 5.61 µM and 0.733 µM | 1.09 µM | 3.47 µM and 5.34 µM | 0.123 µM | 2.88 µM | 0.00498 µM and 0.0451 µM | 0.32 µM and 2.03 µM | 0.131 µM | 1.12 µM and 1.31 µM |
| CC1(C)CC2(C)OC2C2(C1)N=NC(=Nc1ccccc1)O2 (stereo not drawn) | 16.7 µM | 34.8 µM | 4.78 µM | 18.7 µM | 1.68 µM | 4.62 µM | 8.76 µM | 30.4 µM | 1.06 µM | 2.62 µM | 3.45 µM | 17.2 µM | 10.5 µM | 24.3 µM | 28.5 µM | > 100 µM | 2.83 µM | 14.4 µM | 4.11 µM | 15.7 µM |
| C#Cc1ccc(-n2c(/C=C/c3cc(OC)c(OC)c(OC)c3)nc3ncccc3c2=O)cc1 | 2.63 µM | 9.84 µM | 5.36 µM | > 100 µM | 5.58 µM | > 100 µM | 13.3 µM | > 100 µM | 4.61 µM | 64 µM | 12 µM | 90.3 µM | 4.54 µM | 22.1 µM | 5.33 µM | 77.7 µM | 5.85 µM | > 100 µM | 9.74 µM | > 100 µM |
| CCCCCCCCCCCCCCCC(=O)OCC1OC(n2ccc(N)nc2=O)C(O)C1O (stereo not drawn) | – | > 100 µM | – | 67.2 µM | – | > 100 µM | – | > 66.6 µM | – | > 100 µM | – | > 100 µM | – | > 100 µM | – | > 100 µM | – | > 100 µM | – | > 100 µM |
